Assay results as given in PMC3280264 (PLoS ONE, 2012).

Tests used:
Rat SGLT2 = Rat SGLT2 (Rattus norvegicus, UniProt P53792); assay: cell-based
Mouse SGLT1 = molecular target: T1, Mouse SGLT1 (Mus musculus, UniProt Q8C3K6); assay: 14C-AMG uptake in CHOK cells expressing mouse SGLT1; type: cell-based; conditions: CHO-mSGLT1 cells, mean of 2 experiments
T1 construct: expressed in transfected cells; host or cells: CHO-K (CHOK) cells
T1 sequence (Q8C3K6 1-665): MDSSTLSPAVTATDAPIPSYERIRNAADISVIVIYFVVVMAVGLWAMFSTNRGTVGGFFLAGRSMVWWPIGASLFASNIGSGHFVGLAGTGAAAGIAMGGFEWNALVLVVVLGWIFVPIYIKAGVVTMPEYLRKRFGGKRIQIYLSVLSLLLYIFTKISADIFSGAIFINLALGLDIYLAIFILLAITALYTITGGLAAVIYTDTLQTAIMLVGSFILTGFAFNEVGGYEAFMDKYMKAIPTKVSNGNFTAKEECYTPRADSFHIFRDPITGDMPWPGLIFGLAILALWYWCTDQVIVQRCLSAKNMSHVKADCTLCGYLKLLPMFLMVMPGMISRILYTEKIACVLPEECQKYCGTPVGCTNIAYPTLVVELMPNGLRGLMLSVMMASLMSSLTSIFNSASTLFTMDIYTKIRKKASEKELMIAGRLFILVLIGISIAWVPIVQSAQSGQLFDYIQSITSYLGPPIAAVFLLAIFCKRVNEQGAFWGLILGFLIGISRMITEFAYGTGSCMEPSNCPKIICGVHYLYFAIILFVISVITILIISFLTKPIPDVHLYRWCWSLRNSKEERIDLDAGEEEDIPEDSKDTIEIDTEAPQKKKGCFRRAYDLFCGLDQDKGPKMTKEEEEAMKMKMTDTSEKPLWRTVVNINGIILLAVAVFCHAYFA
Experimental: Cells were seeded into 96-well plates.
All data are presented as mean ± standard error.

Human SGLT3 = molecular target: T2, Human SGLT3 (Homo sapiens, UniProt Q9NY91); assay: Two-electrode voltage clamp recording of oocytes expressing human SGLT3 (DNJ-induced currents); type: cell-based
T2 construct: expressed in transfected cells; host or cells: oocytes (from Nasco), injected with mRNA
T2 sequence (Q9NY91 1-659): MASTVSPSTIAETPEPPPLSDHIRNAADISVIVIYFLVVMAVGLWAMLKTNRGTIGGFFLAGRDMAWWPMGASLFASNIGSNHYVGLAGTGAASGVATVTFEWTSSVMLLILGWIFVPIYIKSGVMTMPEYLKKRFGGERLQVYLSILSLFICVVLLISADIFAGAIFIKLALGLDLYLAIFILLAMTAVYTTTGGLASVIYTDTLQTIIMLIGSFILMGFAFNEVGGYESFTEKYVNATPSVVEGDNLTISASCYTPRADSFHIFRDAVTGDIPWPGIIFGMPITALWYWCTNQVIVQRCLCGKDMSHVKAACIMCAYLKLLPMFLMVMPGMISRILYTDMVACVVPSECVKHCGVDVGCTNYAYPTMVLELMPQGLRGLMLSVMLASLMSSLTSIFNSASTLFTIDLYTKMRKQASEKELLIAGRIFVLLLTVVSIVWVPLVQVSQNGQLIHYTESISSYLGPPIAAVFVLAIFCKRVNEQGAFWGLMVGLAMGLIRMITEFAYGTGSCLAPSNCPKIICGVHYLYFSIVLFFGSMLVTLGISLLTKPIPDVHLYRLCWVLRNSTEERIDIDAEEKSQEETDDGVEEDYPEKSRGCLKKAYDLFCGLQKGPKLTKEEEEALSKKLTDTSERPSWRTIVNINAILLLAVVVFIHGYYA
Experimental: Oocytes were obtained from Nasco (Fort Atkinson, Wisconsin, USA). Stage V–VI oocytes were injected with 50 nl of either human SGLT3 mRNA (at 1 ng/nl) or distilled water (control) and incubated at 18°C in a calcium-free solution (92 mM NaCl, 2 mM KCl, 1 mM MgCl2, 5 mM HEPES, 0.05 mg/ml gentamicin at pH 7.5) for 4–6 days before recording. The extracellular recording solution contained 92 mM NaCl, 2 mM KCl, 1.8 mM CaCl2, 1 mM MgCl2, and 5 mM HEPES at pH 7.5. Injected oocytes were impaled with 2 microelectrodes filled with 3 M KCl (resistance of ∼0.5–3 MΩ) and voltage clamped to −120 mV, at which continuous recordings were made (filtered at 5 kHz and sampled at 625 Hz). To establish the baseline in the absence of agonist, oocytes were first perfused for 85 seconds with a control buffer (92 mM NaCl, 2 mM KCl, 1.8 mM CaCl2, 1 mM MgCl2, 5 mM HEPES at pH 7.5). […] Finally, phlorizin (3 mM) was applied in the presence of 50 µM DNJ for 160 seconds. All experiments were performed at 22°C. Currents in the presence of 50 µM DNJ were subtracted from leak currents (currents in control buffer alone) to obtain DNJ-induced currents (IDNJ). Effects of compounds were calculated as: % Inhibition = 100×(IDNJ−Icmpd)/IDNJ, where Icmpd is the DNJ-induced and leak-subtracted current in the presence of a compound or DMSO. Due to lack of effect at the highest dose tested, a dose-response relationship was not examined.

Sequence of Rat SGLT2 (P53792 whole entry): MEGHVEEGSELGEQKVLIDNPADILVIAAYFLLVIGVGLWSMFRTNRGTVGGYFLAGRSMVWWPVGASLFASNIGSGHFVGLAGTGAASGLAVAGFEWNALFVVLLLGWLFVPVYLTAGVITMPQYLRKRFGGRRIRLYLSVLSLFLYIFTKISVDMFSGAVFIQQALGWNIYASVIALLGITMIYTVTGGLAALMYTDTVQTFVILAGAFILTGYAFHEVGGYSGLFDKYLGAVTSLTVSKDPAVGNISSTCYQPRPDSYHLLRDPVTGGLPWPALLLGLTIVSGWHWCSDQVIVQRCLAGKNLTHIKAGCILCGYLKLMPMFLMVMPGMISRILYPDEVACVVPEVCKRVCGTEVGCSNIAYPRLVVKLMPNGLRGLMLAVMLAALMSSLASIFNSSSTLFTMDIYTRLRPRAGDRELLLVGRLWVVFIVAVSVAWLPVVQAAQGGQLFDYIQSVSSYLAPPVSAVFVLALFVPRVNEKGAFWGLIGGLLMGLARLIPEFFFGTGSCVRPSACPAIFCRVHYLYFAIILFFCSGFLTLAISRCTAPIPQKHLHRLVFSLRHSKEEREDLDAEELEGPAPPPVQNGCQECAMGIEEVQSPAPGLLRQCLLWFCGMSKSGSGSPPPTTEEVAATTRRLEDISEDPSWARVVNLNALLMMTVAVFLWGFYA

IC50 (Rat SGLT2): 3.7 nM | IC50 (Mouse SGLT1): > 1000 nM | inhibition at 10 µM (Human SGLT3; 10 µM, SGLT3-injected oocytes, 50 µM DNJ, n = 9, DMSO 15.6±3.1%, difference not statistically significant): 23.4 ± 4.3% | effect on currents in sham-injected oocytes (Human SGLT3; 10 µM, sham (water)-injected oocytes, in the presence of 50 µM DNJ): did not affect currents | effect on DNJ-induced currents (Human SGLT3; oocytes expressing human SGLT3, column head IC50, nM): No inhibitory effect
SMILES: Cc1ccc([C@@H]2O[C@H](CO)[C@@H](O)[C@H](O)[C@H]2O)cc1Cc1ccc(-c2ccc(F)cc2)s1 [canagliflozin, Canagliflozin]
